Results reported in US20230111310A1, “CARBOXYLIC ACID DERIVATIVE-SUBSTITUTED IMINO ARYL COMPOUND, PREPARATION METHOD THEREFOR, HERBICIDAL COMPOSITION AND USE THEREOF” (Qingdao Kingagroot Chemical Compound Co., Ltd., priority 2020, published 2023).

Key:
Assay in all cases: Weeding effect in post-emergence stage
Type in all cases: in vivo
Conditions in all cases: Dose 15 g/ha; level of fresh weight growth control rate
Abutilon theophrasti = test system: Abutilon theophrasti
Description: (§1) The activity level criteria for plant damage (i.e., growth control rate) are as follows:
(§2) Monocotyledonous and dicotyledonous weed seeds (Descurainia sophia, Capsella bursa-pastoris, Abutilon theophrasti, Galium aparine, Stellaria media, Lithospermum arvense, rorippa indica, Alopecurus aequalis, Alopecurus japonicus, Eleusine indica, Beckmannia syzigachne, Sclerochloa dura, Conyza Canadensis, Phleum paniculatum, Veronica didyma Tenore, Bromus japonicus, Aegilops tauschii, Phalaris arundinacea, Amaranthus retroflexus, Chenopodiaceae, Commelina communis, Sonchus arvensis, Convolvulus arvensis, Cirsium setosum, Bidens tripartita L., Solanum nigrum, Acalypha australis, Digitaria sanguinalis, Echinochloa crusgalli, Setaria viridis, Setaria glauca, Leptochloa chinensis, Monochoria vaginalis, Sagittaria trifolia, Scirpus juncoides, Cyperus rotundus, Cyperus iria, Cyperus difformis, Fimbristylis, Portulaca oleracea, Xanthium sibiricum, Pharbitis nil, etc.) and major crop seeds (wheat, corn, rice, soybean, cotton, oilseed rape, millet, sorghum, potato, sesame, ricinus, etc.) were placed in plastic pots filled with soil, then covered with 0.5-2 cm of soil, allowed to grow in a good greenhouse environment. After 2 weeks of sowing, the test plants were treated in the 2-3 leaf stage. The tested compounds of the present invention were respectively dissolved in acetone, then added with Tween 80 and 1.5 liter/ha of emulsifiable concentrate of methyl oleate as synergist, diluted with a certain amount of water to obtain a solution with a certain concentration, and sprayed with a spray tower onto the plants. After the application, the plants were cultured for 3 weeks in the greenhouse, and then the experimental results of the weeding were counted. […]

Alopecurus japonicus = test system: Alopecurus japonicus
Description: as §1, §2

Digitaria sanguinalis = test system: Digitaria sanguinalis
Description: as §1, §2

Eleusine indica = test system: Eleusine indica
Description: as §1, §2

Setaria viridis = test system: Setaria viridis
Description: as §1, §2

Echinochloa crusgalli = test system: Echinochloa crusgalli
Description: as §1
Monocotyledonous and dicotyledonous weed seeds (Descurainia sophia, Capsella bursa-pastoris, Abutilon theophrasti, Galium aparine, Stellaria media, Lithospermum arvense, rorippa indica, Alopecurus aequalis, Alopecurus japonicus, Eleusine indica, Beckmannia syzigachne, Sclerochloa dura, Conyza Canadensis, Phleum paniculatum, Veronica didyma Tenore, Bromus japonicus, Aegilops tauschii, Phalaris arundinacea, Amaranthus retroflexus, Chenopodiaceae, Commelina communis, Sonchus arvensis, Convolvulus arvensis, Cirsium setosum, Bidens tripartita L., Solanum nigrum, Acalypha australis, Digitaria sanguinalis, Echinochloa crusgalli, Setaria viridis, Setaria glauca, Leptochloa chinensis, Monochoria vaginalis, Sagittaria trifolia, Scirpus juncoides, Cyperus rotundus, Cyperus iria, Cyperus difformis, Fimbristylis, Portulaca oleracea, Xanthium sibiricum, Pharbitis nil, etc.) and major crop seeds (wheat, corn, rice, soybean, cotton, oilseed rape, millet, sorghum, potato, sesame, ricinus, etc.) were placed in plastic pots filled with soil, then covered with 0.5-2 cm of soil, allowed to grow in a good greenhouse environment. After 2 weeks of sowing, the test plants were treated in the 2-3 leaf stage. The tested compounds of the present invention were respectively dissolved in acetone, then added with Tween 80 and 1.5 liter/ha of emulsifiable concentrate of methyl oleate as synergist, diluted with a certain amount of water to obtain a solution with a certain concentration, and sprayed with a spray tower onto the plants. After the application, the plants were cultured for 3 weeks in the greenhouse, and then the experimental results of the weeding were counted. The doses of the used compounds were 500, 250, 125, 60, 30, 15, 7.5 g/ha, and the averages were obtained by repeating for three times.

COC(=O)C(C)O/N=C/c1cc(-n2c(=O)n(C)c(=S)n(C)c2=S)c(F)cc1Cl (racemic) [Compound 124]
Weeding effect in post-emergence stage, Abutilon theophrasti (Abutilon theophrasti): 5 (Level 5: growth control rate is above 85%)
Weeding effect in post-emergence stage, Alopecurus japonicus (Alopecurus japonicus): 4 (Level 4: growth control rate is greater than or equal to 60% and less than 85%)
Weeding effect in post-emergence stage, Digitaria sanguinalis (Digitaria sanguinalis): 5 (Level 5: growth control rate is above 85%)
Weeding effect in post-emergence stage, Eleusine indica (Eleusine indica): 5 (Level 5: growth control rate is above 85%)
Weeding effect in post-emergence stage, Setaria viridis (Setaria viridis): 5 (Level 5: growth control rate is above 85%)
Weeding effect in post-emergence stage, Echinochloa crusgalli (Echinochloa crusgalli): 5 (Level 5: growth control rate is above 85%)

CCOC(=O)C(C)O/N=C/c1cc(-n2c(=O)n(C)c(=S)n(C)c2=S)c(F)cc1Br (racemic) [Compound 161]
Weeding effect in post-emergence stage, Abutilon theophrasti (Abutilon theophrasti): 5 (Level 5: growth control rate is above 85%)
Weeding effect in post-emergence stage, Alopecurus japonicus (Alopecurus japonicus): 4 (Level 4: growth control rate is greater than or equal to 60% and less than 85%)
Weeding effect in post-emergence stage, Digitaria sanguinalis (Digitaria sanguinalis): 4 (Level 4: growth control rate is greater than or equal to 60% and less than 85%)
Weeding effect in post-emergence stage, Eleusine indica (Eleusine indica): 5 (Level 5: growth control rate is above 85%)
Weeding effect in post-emergence stage, Setaria viridis (Setaria viridis): 5 (Level 5: growth control rate is above 85%)
Weeding effect in post-emergence stage, Echinochloa crusgalli (Echinochloa crusgalli): 5 (Level 5: growth control rate is above 85%)

COC(=O)C(C)O/N=C/c1cc(-n2c(=O)n(C)c(=O)n(C)c2=O)c(F)cc1Cl (racemic) [Compound 164]
Weeding effect in post-emergence stage, Abutilon theophrasti (Abutilon theophrasti): 5 (Level 5: growth control rate is above 85%)
Weeding effect in post-emergence stage, Alopecurus japonicus (Alopecurus japonicus): 5 (Level 5: growth control rate is above 85%)
Weeding effect in post-emergence stage, Digitaria sanguinalis (Digitaria sanguinalis): 5 (Level 5: growth control rate is above 85%)
Weeding effect in post-emergence stage, Eleusine indica (Eleusine indica): 5 (Level 5: growth control rate is above 85%)
Weeding effect in post-emergence stage, Setaria viridis (Setaria viridis): 5 (Level 5: growth control rate is above 85%)
Weeding effect in post-emergence stage, Echinochloa crusgalli (Echinochloa crusgalli): 5 (Level 5: growth control rate is above 85%)

CCSC(=O)C(C)O/N=C/c1cc(-n2c(=O)n(C)c(=S)n(C)c2=O)c(F)cc1Cl (racemic) [Compound 168]
Weeding effect in post-emergence stage, Abutilon theophrasti (Abutilon theophrasti): 5 (Level 5: growth control rate is above 85%)
Weeding effect in post-emergence stage, Alopecurus japonicus (Alopecurus japonicus): 5 (Level 5: growth control rate is above 85%)
Weeding effect in post-emergence stage, Digitaria sanguinalis (Digitaria sanguinalis): 5 (Level 5: growth control rate is above 85%)
Weeding effect in post-emergence stage, Eleusine indica (Eleusine indica): 5 (Level 5: growth control rate is above 85%)
Weeding effect in post-emergence stage, Setaria viridis (Setaria viridis): 5 (Level 5: growth control rate is above 85%)
Weeding effect in post-emergence stage, Echinochloa crusgalli (Echinochloa crusgalli): 5 (Level 5: growth control rate is above 85%)

COC(=O)CCNC(=O)C(C)O/N=C/c1cc(-n2c(=O)n(C)c(=S)n(C)c2=O)c(F)cc1Cl (racemic) [Compound 183]
Weeding effect in post-emergence stage, Abutilon theophrasti (Abutilon theophrasti): 5 (Level 5: growth control rate is above 85%)
Weeding effect in post-emergence stage, Alopecurus japonicus (Alopecurus japonicus): 5 (Level 5: growth control rate is above 85%)
Weeding effect in post-emergence stage, Digitaria sanguinalis (Digitaria sanguinalis): 5 (Level 5: growth control rate is above 85%)
Weeding effect in post-emergence stage, Eleusine indica (Eleusine indica): 5 (Level 5: growth control rate is above 85%)
Weeding effect in post-emergence stage, Setaria viridis (Setaria viridis): 5 (Level 5: growth control rate is above 85%)
Weeding effect in post-emergence stage, Echinochloa crusgalli (Echinochloa crusgalli): 5 (Level 5: growth control rate is above 85%)

CC(O/N=C/c1cc(-n2c(=O)cc(C(F)(F)F)n(C)c2=O)c(F)cc1Cl)C(=O)O (racemic) [Compound 193]
Weeding effect in post-emergence stage, Abutilon theophrasti (Abutilon theophrasti): 5 (Level 5: growth control rate is above 85%)
Weeding effect in post-emergence stage, Alopecurus japonicus (Alopecurus japonicus): 5 (Level 5: growth control rate is above 85%)
Weeding effect in post-emergence stage, Digitaria sanguinalis (Digitaria sanguinalis): 5 (Level 5: growth control rate is above 85%)
Weeding effect in post-emergence stage, Eleusine indica (Eleusine indica): 5 (Level 5: growth control rate is above 85%)
Weeding effect in post-emergence stage, Setaria viridis (Setaria viridis): 5 (Level 5: growth control rate is above 85%)
Weeding effect in post-emergence stage, Echinochloa crusgalli (Echinochloa crusgalli): 5 (Level 5: growth control rate is above 85%)
